This note sets out measurements from patent EP0894433B1, “A method of preparing a biocidal material” (EASTMAN KODAK COMPANY, priority 1997, dated 1999).

This data set is described as follows: Partition coefficient between octanol and water by UV/visible absorption. It is filed as physicochemical. Particulars: partition coefficient n-octanol/water, 25°C; read-out: P. The protocol:
As used herein, it provides a measure of the hydrophobicity of the biocide.
A variety of commercial and hydrophobically-modified biocides have been studied. Partition coefficients between octanol and water have been determined at 25°C by UV/visible absorption. First, the calibration curve of each biocide was determined as optical density (ODabs) versus concentration of biocide in µg/g (ppm) of water for the predominantly water-soluble materials and µg/g of octanol for the predominantly oil-soluble biocides.
A known amount of biocide was placed in a glass vessel containing either 10ml of water or 10ml of octanol depending on the solubility of the biocide. An equal volume of the other solvent was added and the glass vessel sealed. The vessel was shaken vigorously for a few minutes and then every few hours for more than 48 hours. Each mixture was placed in a sealed separating funnel and left for a further 24 hours. The water phase of each mixture was removed and the UV/visible spectra run against water with appropriate dilutions to bring absorbance between 0 and 1.5 for the commercial biocides and the octanol fractions were examined for the hydrophobically modified biocides.
As for `CCCCCCCCn1sc2ccccc2c1=O` [Compound 1], the logP is greater than 2.52.
As to `CCCCCCCCCCCCCCCCn1sc2ccccc2c1=O` [Compound 2], the logP is greater than 2.11.
Regarding `CCCCCCCCCCCCCCCCCCn1sc(Cl)cc1=O` [Compound 4], the logP was greater than 2.68.
For `CCCCCCCCCCCC[N+](C)(C)CCOc1ccccc1` [Domiphen™], the logP was roughly 1.7.
The figure for `CCCCCCCCn1sc(Cl)cc1=O` [Compound 3] is greater than 2.75; for `Cn1sc2c(c1=O)CCC2` [Promexal™] it is roughly 0.653.
